In PMC10341795, “N-Methyl Costaricine and Costaricine, Two Potent Butyrylcholinesterase Inhibitors from Alseodaphne pendulifolia Gamb” (International Journal of Molecular Sciences, 2023):
“Also recorded” adds a separate entry of the source. Read-outs that look alike come from different tables or passages of the source.

Key:
[1] = target: T1, AChE from Electrophorus electricus (Electrophorus electricus, UniProt O42275); assay: biochemical; conditions: for Selectivity Index AChE: IC50 (BChE)/IC50 (AChE); for inhibition at 100 µM: read-out: Percentage Inhibition at 100 µM, AChE, 100 µM
T1 construct: purchased Sigma-Aldrich Co. LLC; (St. Louis, MO, USA)
T1 sequence (O42275 24-633): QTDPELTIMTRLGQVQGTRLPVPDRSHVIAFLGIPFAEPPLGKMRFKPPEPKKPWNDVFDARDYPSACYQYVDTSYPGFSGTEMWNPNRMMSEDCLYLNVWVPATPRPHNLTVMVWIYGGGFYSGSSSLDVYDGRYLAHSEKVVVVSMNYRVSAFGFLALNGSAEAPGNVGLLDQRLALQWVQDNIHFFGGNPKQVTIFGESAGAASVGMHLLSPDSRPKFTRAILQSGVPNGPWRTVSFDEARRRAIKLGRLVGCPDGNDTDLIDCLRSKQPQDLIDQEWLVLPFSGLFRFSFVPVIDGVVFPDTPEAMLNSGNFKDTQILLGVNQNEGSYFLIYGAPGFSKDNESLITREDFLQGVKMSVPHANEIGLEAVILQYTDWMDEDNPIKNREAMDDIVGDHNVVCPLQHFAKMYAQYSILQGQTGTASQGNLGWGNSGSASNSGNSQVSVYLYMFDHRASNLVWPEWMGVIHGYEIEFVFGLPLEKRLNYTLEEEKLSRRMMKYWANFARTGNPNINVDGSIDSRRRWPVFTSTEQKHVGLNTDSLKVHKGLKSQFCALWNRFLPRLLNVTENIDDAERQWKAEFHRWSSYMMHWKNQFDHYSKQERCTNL
Experimental: (§1) The cholinesterase inhibitory activities of the extracts and fompounds 1–6 were performed as previously described. AChE from Electrophorus electricus and BChE from equine serum were purchased from Sigma-Aldrich Co. LLC. (St. Louis, MO, USA). An amount of 0.1 M of sodium phosphate buffer (pH 8) was added to a 96-well microplate followed by the sample and 1U of the AChE or BChE. Then, 10 mM of 5,5′-dithiobis(2-nitrobenzoic acid) (DTNB) was added followed by 14 mM of acetylthiocholine iodide or S-butyrylthiocholine chloride. The final concentration of DMSO was 1%.

[2] = target: T2, BChE from equine serum (Equus caballus, UniProt P81908); assay: biochemical; assay type: biochemical; conditions: for Selectivity Index BChE: IC50 (AChE)/IC50 (BChE); for BChE potency relative to galantamine: comparison of IC50 values; for Cholinesterase selectivity (in words): from selectivity indices, AChE vs BChE; for inhibition at 100 µM: read-out: Percentage Inhibition at 100 µM, BChE, 100 µM
T2 construct: AChE from Electrophorus electricus and BChE from equine serum were purchased from Sigma-Aldrich Co. LLC; purchased Sigma-Aldrich Co. LLC; (St. Louis, MO, USA); host or cells: equine serum
T2 sequence (P81908 whole entry): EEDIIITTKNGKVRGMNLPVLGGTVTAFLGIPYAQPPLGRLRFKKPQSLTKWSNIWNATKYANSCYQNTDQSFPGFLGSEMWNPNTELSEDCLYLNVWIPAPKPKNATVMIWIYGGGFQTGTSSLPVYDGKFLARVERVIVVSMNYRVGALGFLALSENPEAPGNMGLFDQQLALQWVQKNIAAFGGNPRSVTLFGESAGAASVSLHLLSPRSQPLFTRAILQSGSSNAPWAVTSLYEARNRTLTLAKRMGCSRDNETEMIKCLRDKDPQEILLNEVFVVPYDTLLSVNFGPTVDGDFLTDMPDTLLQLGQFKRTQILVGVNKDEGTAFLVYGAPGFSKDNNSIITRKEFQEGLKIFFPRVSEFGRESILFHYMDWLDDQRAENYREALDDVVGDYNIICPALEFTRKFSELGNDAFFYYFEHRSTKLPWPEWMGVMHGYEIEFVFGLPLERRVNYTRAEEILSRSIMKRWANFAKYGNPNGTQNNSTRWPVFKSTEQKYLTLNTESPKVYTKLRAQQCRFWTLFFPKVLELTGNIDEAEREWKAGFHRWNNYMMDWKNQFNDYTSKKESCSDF
Experimental: as §1

[3] = target: T3, BChE (Equus caballus, UniProt P81908); assay: Enzyme kinetic study against BChE (Lineweaver-Burk and secondary plots); assay type: biochemical; conditions: for Mode of inhibition against BChE: Lineweaver-Burk plot
T3 construct: AChE from Electrophorus electricus and BChE from equine serum were purchased from Sigma-Aldrich Co. LLC; purchased Sigma-Aldrich Co. LLC; (St. Louis, MO, USA); host or cells: equine serum
T3 sequence (P81908 whole entry): as above
Experimental: as §1, with “1%. Galanthamine was used as the standard for validation and result comparison. The absorbance was measured using a Tecan Infinite 200 Pro Microplate Spectrometer at 412 nm for 30 min.” for “1%.”
The enzyme kinetic studies of compounds 1 and 2 against BChE were performed in a similar manner to the in vitro BChE inhibition assay. The enzyme inhibition kinetic was carried out in the presence of three concentrations of the inhibitors, compounds 1 and 2, at various concentrations of the substrate, S-butyrylthiocholine chloride by constructing a Lineweaver–Burk plot (reciprocal plots of 1/V versus 1/[S]). The inhibition constant (Ki) was estimated from the secondary plot of the Lineweaver–Burk plot.

Structure (SMILES)	Selectivity Index AChE [1]	IC50 ([1]; mean ± SD (n = 3), read-out: IC50 AChE) [µM]	inhibition at 100 µM ([1]; mean ± SD (n = 3)) [%]	Selectivity Index BChE [2]	BChE potency relative to galantamine [2]	Cholinesterase selectivity (in words) [2]	IC50 ([2]; mean ± SD (n = 3), read-out: IC50 BChE) [µM]	Mode of inhibition against BChE [3]	Ki ([3]; derived from secondary plots of Lineweaver-Burk plots, read-out: Inhibition constant Ki against BChE) [µM]	IC50 [1] [µM]	IC50 [2] [µM]	Ki [3] [µM]	Fold higher affinity to BChE compared to compound 1 ([3]; ratio of Ki values) [fold]	inhibition at 100 µM ([2]; mean ± SD (n = 3)) [%]
COc1cc2c(cc1O)C(Cc1ccc(Oc3cc(CC4c5cc(O)c(OC)cc5CCN4C)ccc3OC)cc1)NCC2 (stereo not shown) [Compound 1, N-methyl costaricine]	0.15	22.8 ± 1.25	> 70	6.48	two-fold more potent than galantamine	BChE selective inhibitors	3.51 ± 0.8	mixed-mode inhibitors; also recorded: mixed-mode inhibition	0.67	–	–	–	–	–
COc1cc2c(cc1O)[C@@H](Cc1ccc(Oc3cc(C[C@H]4NCCc5cc(OC)c(O)cc54)ccc3OC)cc1)NCC2 [Compound 2, costaricine]	0.17	–	> 70	6.03	two-fold more potent than galantamine	BChE selective inhibitors	–	mixed-mode inhibitors; also recorded: mixed-mode inhibition	–	17.5 ± 2.16	2.9 ± 0.56	0.05	13	–
COc1ccc2c(c1OC)-c1c(OC)c(OC)cc3c1C(C2)NCC3 (stereo not shown) [Compound 3, hernagine]	–	–	< 10	–	–	–	–	–	–	–	32.9 ± 0.99	–	–	88.87 ± 0.56
COc1ccc2c(c1OC)-c1c(OC)c(OC)cc3c1C(C2)N(C)CC3 (stereo not shown) [Compound 4, N-methyl hernagine]	–	–	23.1 ± 8.39	–	–	–	–	–	–	–	49.7 ± 3.95	–	–	77.8 ± 3.73
COc1cc2c3c(c1O)-c1c(ccc(OC)c1OC)C[C@@H]3N(C)CC2 [Compound 5, corydine]	–	–	29.7 ± 1.85	–	–	–	–	–	–	–	52.9 ± 4.11	–	–	77.9 ± 1.73
